Assay results as given in PMC9570109, “Improved Trimethylangelicin Analogs for Cystic Fibrosis: Design, Synthesis and Preliminary Screening” (International Journal of Molecular Sciences, 2022).

Experiments:
[1] = system: salmon testes DNA; assay: Photoadduct formation with DNA under UVA irradiation (TLC analysis); conditions: 15 J/cm2 UVA
Experimental: The total energy that struck the sample was monitored by means of a radiometer (Variocontrol, Waldmann, Villingen-Schwenningen, Germany), equipped with a Variocontrol UV Sensor (Waldmann). The radiant power emitted by the UVA lamp was about […]. The samples were maintained at room temperature during irradiation.
The test compounds were dissolved in ethanol (2 mg/mL) and salmon testes DNA (Sigma-Aldrich) was dissolved in 10 mM NaCl and 1 mM EDTA solution (1.5 × 10^−3 M). Each test solution (250 μL) was added dropwise to the DNA solution (5 mL). The mixture was irradiated with 15 J/cm2 UVA light in a glass dish for 1 h. After irradiation, the DNA was precipitated with 1 M NaCl and two volumes of cold ethanol; the precipitated DNA was collected, washed with 80% ethanol, dried, and then dissolved in water. To obtain hydrolysis, the final solution was acidified with 1 M HCl, heated at 100 °C for 1 h, neutralized with NaOH and extracted three times with chloroform. Then, all of the organic layers were collected, dried under a high vacuum, and dissolved in ethanol. The hydrolyzed mixtures were separated by thin layer chromatography (TLC; F254 plates, 0.25 mm, Merck, Darmstadt, Germany) eluting with EtOAc/EtOH (9:1). The plates were analyzed with a Mineral Light Lamp VL-4LC VILBERT-LOURMAT (Vilber, Marne-la-Vallée, France).

[2] = system: Salmonella typhimurium TA100; assay: Ames mutagenicity assay, plate incorporation, TA100; format: cell-based
Experimental: (§1) The mutagenicity assay was performed for the test compounds following the plate incorporation method with the histidine-requiring Salmonella typhimurium mutant TA97A, TA98, TA100, and TA1535 strains purchased by Molecular Toxicology Inc. (Boone, NC, USA; moltox.com). All strains (100 µL per plate of fresh overnight cultures) were checked with and without the addition of 0.5 mL of a 5% S9 exogenous metabolic activator (S9 mix). The lyophilized post-mitochondrial supernatant S9 mix (Aroclor 1254-induced, Sprague–Dawley male rat liver in 0.154 M KCl solution), commonly used for the activation of pro-mutagens in mutagenic metabolites (Molecular Toxicology, Inc., Boone, NC, USA), was stored at −80 °C before use. The concentration tested for all the samples were 5, 10, 20, 50, and 100 µL/plate from a stock solution of 500 nM. A fully grown culture of the appropriate tester strain (0.1 mL) was added to 2 mL molten top agar (0.6% agar, 0.6% NaCl, 0.5 mM L-histidine/biotin solution) at 46 °C, together with 0.1 mL of each sample solution at different concentrations, and 0.5 mL S9 mix for assays with metabolic activation. The ingredients were thoroughly mixed and poured onto minimal glucose agar plates (1.5% agar in 2% Vogel–Bonner medium E with 5% glucose solution). DMSO was used as negative a control (100 µL/plate). Positive controls were prepared as follows: 2-aminoanthracene (2 µg/plate) and 2-nitrofluorene (2 µg/plate) for TA 97A, TA98 and TA1535 with and without metabolic activator (S9 mix), respectively; 2-aminoanthracene (2 µg/plate) and sodium azide (2 µg/plate) for TA100, with and without metabolic activator (S9 mix), respectively. The plates were incubated at 37 °C for 72 h and then his+ revertants were checked and counted using a Colony Counter 560 Suntex (Antibioticos, Italy). A sample was considered mutagenic when the observed number of colonies was at least twofold over the spontaneous level of revertants. All determinations were made in triplicate. Statistical analysis: relative standard deviations were calculated using the statistical software STATISTICA 6.0 (StatSoft, Italia srl, Vigonza, Italy). […]
(§2) Salmonella typhimurium TA97A Salmonella typhimurium TA98 Salmonella typhimurium TA100 Salmonella typhimurium 1535 […]
(§3) average SD t/c average SD t/c average SD t/c average SD t/c average SD t/c average SD t/c average SD t/c average SD t/c […]
(§4) *Significant values according to Ames computation (Maron & Ames, 1983); DMSO, C+: negative and positive controls respectively; SD: Standard Deviation; t/c: number of revertant colonies in treated plates/number of revertant colonies in […]

[3] = system: Salmonella typhimurium TA98; assay: Ames mutagenicity assay, plate incorporation, TA98; format: cell-based
Experimental: as §1, §2, §3, §4

[4] = system: Salmonella typhimurium 1535; assay: Ames mutagenicity assay, plate incorporation, TA1535; format: cell-based
Experimental: as §1, §2, §3, §4

[5] = TA100, +S9, 5 µL/plate of 500 nM stock
[6] = TA100, +S9, 10 µL/plate of 500 nM stock
[7] = TA100, +S9, 20 µL/plate of 500 nM stock
[8] = TA100, +S9, 50 µL/plate of 500 nM stock
[9] = TA100, +S9, 100 µL/plate of 500 nM stock
[10] = TA100, -S9, 5 µL/plate of 500 nM stock
[11] = TA100, -S9, 10 µL/plate of 500 nM stock
[12] = TA100, -S9, 20 µL/plate of 500 nM stock
[13] = TA100, -S9, 50 µL/plate of 500 nM stock
[14] = TA100, -S9, 100 µL/plate of 500 nM stock
[15] = TA98, +S9, 5 µL/plate of 500 nM stock
[16] = TA98, +S9, 10 µL/plate of 500 nM stock
[17] = TA98, +S9, 20 µL/plate of 500 nM stock
[18] = TA98, +S9, 50 µL/plate of 500 nM stock
[19] = TA98, +S9, 100 µL/plate of 500 nM stock
[20] = TA98, -S9, 5 µL/plate of 500 nM stock
[21] = TA98, -S9, 10 µL/plate of 500 nM stock
[22] = TA98, -S9, 20 µL/plate of 500 nM stock
[23] = TA98, -S9, 50 µL/plate of 500 nM stock
[24] = TA98, -S9, 100 µL/plate of 500 nM stock
[25] = 1535, +S9, 5 µL/plate of 500 nM stock
[26] = 1535, +S9, 10 µL/plate of 500 nM stock
[27] = 1535, +S9, 20 µL/plate of 500 nM stock
[28] = 1535, +S9, 50 µL/plate of 500 nM stock
[29] = 1535, +S9, 100 µL/plate of 500 nM stock
[30] = 1535, -S9, 5 µL/plate of 500 nM stock
[31] = 1535, -S9, 10 µL/plate of 500 nM stock
[32] = 1535, -S9, 20 µL/plate of 500 nM stock
[33] = 1535, -S9, 50 µL/plate of 500 nM stock
[34] = 1535, -S9, 100 µL/plate of 500 nM stock

Cc1cc2c(-c3ccccc3)cc(=O)oc2c2c(C)coc12 [4-PhDMA]
photoadduct formation with DNA upon UVA irradiation [1]: only the unchanged bands
revertant colonies, average [2, 5]: 159.5
t/c (revertant colonies treated/untreated plates) [2, 5]: 0.9
revertant colonies, average [2, 6]: 193.0
t/c (revertant colonies treated/untreated plates) [2, 6]: 1.1
revertant colonies, average [2, 7]: 193.5
t/c (revertant colonies treated/untreated plates) [2, 7]: 1.1
revertant colonies, average [2, 8]: 187.5
t/c (revertant colonies treated/untreated plates) [2, 8]: 1.1
revertant colonies, average [2, 9]: 197.0
t/c (revertant colonies treated/untreated plates) [2, 9]: 1.2
revertant colonies, average [2, 10]: 208.5
t/c (revertant colonies treated/untreated plates) [2, 10]: 1.1
revertant colonies, average [2, 11]: 198.5
t/c (revertant colonies treated/untreated plates) [2, 11]: 1.0
revertant colonies, average [2, 12]: 207.0
t/c (revertant colonies treated/untreated plates) [2, 12]: 1.1
revertant colonies, average [2, 13]: 184.5
t/c (revertant colonies treated/untreated plates) [2, 13]: 0.9
revertant colonies, average [2, 14]: 179.0
t/c (revertant colonies treated/untreated plates) [2, 14]: 0.9
revertant colonies, average [3, 15]: 47.0
t/c (revertant colonies treated/untreated plates) [3, 15]: 1.0
revertant colonies, average [3, 16]: 49.0
t/c (revertant colonies treated/untreated plates) [3, 16]: 1.1
revertant colonies, average [3, 17]: 52.5
t/c (revertant colonies treated/untreated plates) [3, 17]: 1.1
revertant colonies, average [3, 18]: 47.5
t/c (revertant colonies treated/untreated plates) [3, 18]: 1.0
revertant colonies, average [3, 19]: 47.5
t/c (revertant colonies treated/untreated plates) [3, 19]: 1.0
revertant colonies, average [3, 20]: 39.0
t/c (revertant colonies treated/untreated plates) [3, 20]: 1.0
revertant colonies, average [3, 21]: 42.0
t/c (revertant colonies treated/untreated plates) [3, 21]: 1.1
revertant colonies, average [3, 22]: 38.5
t/c (revertant colonies treated/untreated plates) [3, 22]: 1.0
revertant colonies, average [3, 23]: 41.0
t/c (revertant colonies treated/untreated plates) [3, 23]: 1.1
revertant colonies, average [3, 24]: 41.0
t/c (revertant colonies treated/untreated plates) [3, 24]: 1.1
revertant colonies, average [4, 25]: 10.5
t/c (revertant colonies treated/untreated plates) [4, 25]: 1.0
revertant colonies, average [4, 26]: 13.5
t/c (revertant colonies treated/untreated plates) [4, 26]: 1.3
revertant colonies, average [4, 27]: 11.0
t/c (revertant colonies treated/untreated plates) [4, 27]: 1.0
revertant colonies, average [4, 28]: 10.5
t/c (revertant colonies treated/untreated plates) [4, 28]: 1.0
revertant colonies, average [4, 29]: 11.0
t/c (revertant colonies treated/untreated plates) [4, 29]: 1.0
revertant colonies, average [4, 30]: 15.0
t/c (revertant colonies treated/untreated plates) [4, 30]: 1.4
revertant colonies, average [4, 31]: 13.0
t/c (revertant colonies treated/untreated plates) [4, 31]: 1.2
revertant colonies, average [4, 32]: 5.5
t/c (revertant colonies treated/untreated plates) [4, 32]: 0.5
revertant colonies, average [4, 33]: 10.0
t/c (revertant colonies treated/untreated plates) [4, 33]: 0.9
revertant colonies, average [4, 34]: 7.0
t/c (revertant colonies treated/untreated plates) [4, 34]: 0.6

Cc1cc(=O)oc2c1cc(-c1ccc(N)cc1)c1occ(C)c12 [pANDMA]
photoadduct formation with DNA upon UVA irradiation [1]: only the unchanged bands
revertant colonies, average [2, 5]: 175.0
t/c (revertant colonies treated/untreated plates) [2, 5]: 1.0
revertant colonies, average [2, 6]: 181.5
t/c (revertant colonies treated/untreated plates) [2, 6]: 1.1
revertant colonies, average [2, 7]: 224.0
t/c (revertant colonies treated/untreated plates) [2, 7]: 1.3
revertant colonies, average [2, 8]: 232.0
t/c (revertant colonies treated/untreated plates) [2, 8]: 1.4
revertant colonies, average [2, 9]: 235.5
t/c (revertant colonies treated/untreated plates) [2, 9]: 1.4
revertant colonies, average [2, 10]: 192.0
t/c (revertant colonies treated/untreated plates) [2, 10]: 1.0
revertant colonies, average [2, 11]: 189.0
t/c (revertant colonies treated/untreated plates) [2, 11]: 1.0
revertant colonies, average [2, 12]: 204.5
t/c (revertant colonies treated/untreated plates) [2, 12]: 1.0
revertant colonies, average [2, 13]: 189.0
t/c (revertant colonies treated/untreated plates) [2, 13]: 1.0
revertant colonies, average [2, 14]: 165.5
t/c (revertant colonies treated/untreated plates) [2, 14]: 0.8
revertant colonies, average [3, 15]: 50.0
t/c (revertant colonies treated/untreated plates) [3, 15]: 1.1
revertant colonies, average [3, 16]: 48.0
t/c (revertant colonies treated/untreated plates) [3, 16]: 1.0
revertant colonies, average [3, 17]: 49.5
t/c (revertant colonies treated/untreated plates) [3, 17]: 1.1
revertant colonies, average [3, 18]: 51.0
t/c (revertant colonies treated/untreated plates) [3, 18]: 1.1
revertant colonies, average [3, 19]: 45.5
t/c (revertant colonies treated/untreated plates) [3, 19]: 1.0
revertant colonies, average [3, 20]: 40.5
t/c (revertant colonies treated/untreated plates) [3, 20]: 1.0
revertant colonies, average [3, 21]: 40.5
t/c (revertant colonies treated/untreated plates) [3, 21]: 1.0
revertant colonies, average [3, 22]: 43.5
t/c (revertant colonies treated/untreated plates) [3, 22]: 1.1
revertant colonies, average [3, 23]: 41.0
t/c (revertant colonies treated/untreated plates) [3, 23]: 1.1
revertant colonies, average [3, 24]: 39.0
t/c (revertant colonies treated/untreated plates) [3, 24]: 1.0
revertant colonies, average [4, 25]: 14.5
t/c (revertant colonies treated/untreated plates) [4, 25]: 1.4
revertant colonies, average [4, 26]: 17.0
t/c (revertant colonies treated/untreated plates) [4, 26]: 1.6
revertant colonies, average [4, 27]: 12.0
t/c (revertant colonies treated/untreated plates) [4, 27]: 1.1
revertant colonies, average [4, 28]: 13.0
t/c (revertant colonies treated/untreated plates) [4, 28]: 1.2
revertant colonies, average [4, 29]: 14.0
t/c (revertant colonies treated/untreated plates) [4, 29]: 1.3
revertant colonies, average [4, 30]: 17.5
t/c (revertant colonies treated/untreated plates) [4, 30]: 1.6
revertant colonies, average [4, 31]: 13.0
t/c (revertant colonies treated/untreated plates) [4, 31]: 1.2
revertant colonies, average [4, 32]: 5.5
t/c (revertant colonies treated/untreated plates) [4, 32]: 0.5
revertant colonies, average [4, 33]: 9.5
t/c (revertant colonies treated/untreated plates) [4, 33]: 0.9
revertant colonies, average [4, 34]: 10.0
t/c (revertant colonies treated/untreated plates) [4, 34]: 0.9
